One assay has as its system yeast strain YDK11-5A. Description: growth assay, yEGFP fusion expression and chaperone overexpression. It counts as cell-based, S. cerevisiae. The settings on record: chaperones from GAL1-10 promoter, SGal-Leu-Trp plates, 30 °C. The source says: Supplementary Figure 3 The N-terminal residues of Rpl10 and Rpl3 are sufficient and required for the interaction with Sqt1 and Rrb1, respectively. (a) The negative growth effect associated with L10-N- and L3-N-yEGFP expression is suppressed by overexpression of Sqt1 and Rrb1, respectively. The wild-type strain YDK11-5A was co-transformed with plasmids expressing yEGFP, Rpl10(1-20)-yEGFP or Rpl3(1-23)-yEGFP from the cognate RPL10 or RPL3 promoter, respectively, and empty vector or plasmids expressing Sqt1 or Rrb1 from the inducible GAL1-10 promoter. Transformants were first selected and then restreaked on SGal-Leu-Trp plates. Cells were spotted in 10-fold serial dilution steps onto SC-Leu-Trp (Glucose, Glu) and SGal-Leu-Trp (Galactose, Gal) plates, which were incubated for 3 d or 4 d at 30 °C, respectively. (b) The N-terminal residues of Rpl10 and Rpl3 are sufficient to mediate interaction with their chaperones in vivo. Tandem-affinity purification of C-terminally TAP-tagged Sqt1 (Sqt1-TAP, lanes 1 and 2) and N-terminally TAP-tagged Rrb1 (NTAP-Rrb1, […]
(1 picture or pasted object on this page, not shown here)

In assay [1] the test system is Sqt1-TAP. Description: in vivo co-purification (TAP) with Sqt1-TAP. Type of assay: binding, S. cerevisiae. The conditions noted are these: CUP1 promoter, 30 min with 500 µM copper sulfate. As to the method: (§1) Cells expressing Sqt1-TAP and NTAP-Rrb1 were grown at 30 °C in 4 l yeast extract peptone dextrose (YPD) medium to an optical density (OD600) of 2. Cell extracts were obtained by glass bead lysis with a Pulverisette (Fritsch). TAPs were performed in a buffer containing 50 mM Tris-HCl (pH 7.5), 100 mM NaCl, 1.5 mM MgCl2, 5% glycerol and 0.1% NP-40 as described. The EGTA eluates were precipitated by the addition of TCA to a final concentration of 10% and, after an acetone wash, dissolved in 80 μl of 3 × SDS sample buffer. […]
(§2) lanes 3 and 4) from cells where expression of the yEGFP control protein (lanes 1 and 3) or the Rpl10(1-20)-yEGFP (lane 2) and Rpl3(1-23)-yEGFP (lane 4) fusion proteins has been induced from the CUP1 promoter for 30 min with 500 µM copper sulfate. Final EGTA eluates were analyzed by SDS-PAGE and Coomassie staining (top) or by Western blotting using anti-CBP, anti-Flag, anti-GFP, anti-Rpl10, and anti-Rpl3 antibodies (bottom). Total cell extracts (input) were analyzed by Western blotting using anti-proteinA, anti-GFP, and anti-Adh1 (loading control) antibodies. […]
(§3) Final EGTA eluates were analyzed by SDS-PAGE and Coomassie staining (top) or by Western blotting using anti-CBP, anti-Flag, anti-HA, anti-Rpl10, and anti-Rpl3 antibodies (bottom). […] Total cell extracts (input) were analyzed by Western blotting using anti-proteinA, anti-HA, and anti-Adh1 (loading control) antibodies. […]

For assay [2], the system named is Sqt1-TAP. The assay can be described thus: co-translational capturing of yEGFP fusion by qRT-PCR, Sqt1-TAP purification. Type of assay: binding, S. cerevisiae. The settings on record: vs yEGFP control mRNA; expressed 10 min from copper-inducible promoter, then cycloheximide. How it is done:
Figure 7 Chaperones are recruited to nascent ribosomal proteins. (a) The chaperone proteins were affinity purified (IgG-Sepharose pull-down) from extracts of cycloheximide-treated cells and the associated RNA was isolated from the TEV eluates. Each of the four chaperone purifications (NTAP-Rrb1, Syo1-FTpA, Sqt1-TAP, and Yar1-TAP) was assessed for their content of the four ribosomal protein (RP) mRNAs (RPL3, RPL5, RPL10 and RPS3) by real-time qRT–PCR. The data from one representative experiment are expressed as the relative enrichment of the specifically co-purified RP mRNA in each of the four chaperone purifications (see Methods section for details). For each cDNA, real-time qPCRs were performed in triplicates. A highly reproducible data set was obtained in an independent series of chaperone purifications. (b) The N-terminal residues of Rpl10 are sufficient to target Sqt1 to the nascent Rpl10(1–20)-yEGFP fusion protein. […] The Sqt1-TAP purifications were assessed for their content of the RPL3, RPL10 and yEGFP (GFP) mRNAs by real-time qRT–PCR. The data from one representative experiment are expressed as the fold enrichment relative to the RPL3 mRNA. […]
For orientation: In qPCR the cycle at which signal appears reflects the starting amount.

Assay [3] relates to NTAP-Rrb1. Description: in vivo co-purification (TAP) with NTAP-Rrb1. The settings on record: CUP1 promoter, 30 min with 500 µM copper sulfate. Type of assay: binding, S. cerevisiae. How it is done:
as §1, §2, §3

The test system of assay [4] is NTAP-Rrb1. The assay can be described thus: co-translational capturing of yEGFP fusion by qRT-PCR, NTAP-Rrb1 purification. Type of assay: binding, S. cerevisiae. The settings on record: vs yEGFP control mRNA; expressed 10 min from copper-inducible promoter, then cycloheximide. As to the method:
(§4) Cells expressing Sqt1-TAP, NTAP-Rrb1, Syo1-FTpA and Yar1-TAP were grown at 30 °C in 400 ml YPD medium to an optical density (OD600) of 0.8, then cycloheximide was added to a final concentration of 0.2 mg ml^−1 and the flasks were kept, with intermittent vigorous shaking, on ice for 5 min. Cells were harvested by centrifugation for 5 min at 4 °C at 4,000 r.p.m., washed once with 20 ml of ice-cold lysis buffer (100 mM NaCl, 50 mM Tris-HCl (pH 7.5), 1.5 mM MgCl2, 0.1% NP-40 and 5% glycerol) containing 1 mM PMSF and 0.2 mg ml^−1 cycloheximide (lysis buffer-PC) and resuspended in 2 ml of lysis buffer-PC. Equal volumes of the resuspended cells were transferred into two 2.2 ml Eppendorf tubes, briefly centrifuged and resuspended in 600 μl of ice-cold lysis buffer-PC. To prevent RNA degradation, 4 μl of RiboLock (40 U μl^−1; Fermentas) was added. Then glass beads, corresponding to 1/3 of the lysis buffer volume, were added and the tubes were vigorously vortexed for 10 × 30 s with 30-s intervals on ice. Cell extracts were transferred to a new tube and, to maximize the yield, 400 μl of ice-cold lysis buffer-PC was used to rinse the glass beads. […]
(§5) For RNA isolation from the TEV eluate aliquot (∼450 μl), the TEV eluate was adjusted to 10 mM EDTA (pH 8.0) and 0.5% SDS. […] RNA concentrations (A260) were determined using a NanoDrop 1000 spectrophotometer (Thermo Scientific). […]

Another assay concerns RPL5 mRNA. Description: co-translational capturing by qRT-PCR, RPL5 mRNA. It counts as binding, S. cerevisiae. The conditions noted are these: Syo1-FTpA purification, cycloheximide-treated cells; one representative experiment, qPCR triplicates. How it is done: as §4, §5
For another assay, the system named is RPS3 mRNA. The assay can be described thus: co-translational capturing by qRT-PCR, RPS3 mRNA. It counts as binding, S. cerevisiae. The conditions noted are these: Yar1-TAP purification, cycloheximide-treated cells; one representative experiment, qPCR triplicates. How it is done: as §4, §5

Ends that are not written are not given here.

Take “L10-N (amino acids 1–20) yEGFP (MARRPARCYRYQKNKPYPKS; also: fused to yEGFP; UniProt P41805 1-20, looked up, fragment)”: the “growth defect associated with expression, upon overexpression of Sqt1 or Rrb1, respectively” value in the assay on yeast strain YDK11-5A was “efficiently suppressed”. Also, the “in vivo co-purification with the Sqt1-TAP bait” value with Sqt1-TAP [1] is recorded as “specifically co-purified in vivo”. For the same molecule, the “enrichment of fusion mRNA in Sqt1-TAP purification” value in the assay on Sqt1-TAP [2] was “clearly enriched compared with the yEGFP control mRNA”.

As to “L3-N (amino acids 1–23) yEGFP (MSHRKYEAPRHGHLGFLPRKRAA; also: fused to yEGFP, end not given here; UniProt P14126 1-23, looked up, fragment)”, in the assay with yeast strain YDK11-5A, the “growth defect associated with expression, upon overexpression of Sqt1 or Rrb1, respectively” value is recorded as “efficiently suppressed”. In the assay with NTAP-Rrb1 [3], the “in vivo co-purification with the NTAP-Rrb1 bait” value is “specifically co-purified in vivo”. The “enrichment of fusion mRNA in NTAP-Rrb1 purification” value in the assay on NTAP-Rrb1 [4] was “clearly enriched compared with the yEGFP control mRNA”.

B1: Syo1: transport adaptor, chaperone of Rpl5 (and Rpl11) (protein)
chain: MGRSKKRSRASSSRLNPLRKAGSNDNNKDTNVVNKKLQPLLQNLSSVVPNDRSIALSSISVLCEDAHMRQLLLKEKLVPIILNKLLNDSNSDIVVESFGLLRNLSLEEGYDVSIYLWRSDIWTSITSNFGRIVESLSALQAAEQQPQLKPAGKSKIESKRLLFDFADNLLSLVVALSNGSDDILNEILTESKINEIFQVISQLLKYGVEKLPINLFNTTLDLIYDLSSESFEFIDHVSNNELLSQFLNGLSPALHPQANELTKVLIEGIHCQFLDMKITYDQCNKMIHSVCHSINNIDPVQLVNDINNPVEIGPATSKDESSKVITKIKDYNAKRNESMIKLQSIEIAIDLITAIIEIVASKYESPESQEVAIPEELINTLTNFLPHVFMILKDTFTSRILIGWNNLIWLFVSLSLTELSGELLTTLWSYVTQLDSQDDLSIKIGRMGCIWALLKLIFPDGAFESENRALINVQMLNNSGFARGIIEEFQNNNDLELQQKCINVLSTYAMIQGQIDANKEIGQFFIQTLTQLNVRPEILIEMTNSLFQIYGDASYDYNEPIFVRGGFLSILKDQVVPNLRQQFKMVDKNKNPELKERCHDCFTTLDSFIHYKMNENSTNQ
modifications: left off: FTpA, end not stated, kept
Turning to B1, the “enrichment of the specific ribosomal protein mRNA (RPL5)” value in the assay with RPL5 mRNA is reported as “roughly 100 -fold”.

B2: Yar1: ankyrin-repeat protein, chaperone of Rps3 (protein)
chain: MGLHSEPLDQEDQDTIILDARAGDLDSLKDIFTTLVSPELLSTCKESESDSTALHMAAANGHIETVRYILETVSRANSAEDLKAFVNEVNKTGNTALHWASLNGKLDVVKLLCDEYEADPFIRNKFGHDAIFEAENSGKEEVETYFLKKYDVEPEDDEEDTQTEGKNSVQITKGTEIEQVTKEATEALREETEKLNINKD
modifications: left off: TAP, end not stated, kept
notes: ankyrin-repeat protein, chaperone of Rps3
In the case of B2, the “enrichment of the specific ribosomal protein mRNA (RPS3)” value in the assay with RPS3 mRNA is listed as “roughly 100 -fold”.

Source of the values: paper PMC4491177, “Co-translational capturing of nascent ribosomal proteins by their dedicated chaperones” (Nature Communications, 2015).
